According to the NIST ThermoML archive (doi:10.1016/j.jct.2016.04.014):

Conditions: Liquid, Vibrating tube method

CCCCCCC [heptane]
Conditions | mass density [kg/m3]
288.15 K, 100 kPa | 688.4
288.15 K, 101 kPa | 688.33
288.15 K, 1000 kPa | 689.2
288.15 K, 5000 kPa | 692.5
288.15 K, 10000 kPa | 696.5
288.15 K, 15000 kPa | 700.4
288.15 K, 20000 kPa | 704.1
288.15 K, 25000 kPa | 707.7
288.15 K, 30000 kPa | 711.1
288.15 K, 35000 kPa | 714.3
288.15 K, 40000 kPa | 717.4
288.15 K, 45000 kPa | 720.3
288.15 K, 50000 kPa | 723.1
288.15 K, 55000 kPa | 725.8
288.15 K, 60000 kPa | 728.2
293.15 K, 100 kPa | 684.2
293.15 K, 101 kPa | 684.11
293.15 K, 1000 kPa | 685
293.15 K, 5000 kPa | 688.4
293.15 K, 10000 kPa | 692.6
293.15 K, 15000 kPa | 696.5
293.15 K, 20000 kPa | 700.4
293.15 K, 25000 kPa | 704
293.15 K, 30000 kPa | 707.5
293.15 K, 35000 kPa | 710.9
293.15 K, 40000 kPa | 714
293.15 K, 45000 kPa | 717
293.15 K, 50000 kPa | 719.9
293.15 K, 55000 kPa | 722.5
293.15 K, 60000 kPa | 725.1
298.15 K, 100 kPa | 679.9
298.15 K, 101 kPa | 679.87
298.15 K, 1000 kPa | 680.7
298.15 K, 5000 kPa | 684.3
298.15 K, 10000 kPa | 688.6
298.15 K, 15000 kPa | 692.7
298.15 K, 20000 kPa | 696.6
298.15 K, 25000 kPa | 700.4
298.15 K, 30000 kPa | 704
298.15 K, 35000 kPa | 707.4
298.15 K, 40000 kPa | 710.7
298.15 K, 45000 kPa | 713.8
298.15 K, 50000 kPa | 716.7
298.15 K, 55000 kPa | 719.4
298.15 K, 60000 kPa | 721.9
303.15 K, 100 kPa | 675.7
303.15 K, 101 kPa | 675.6
303.15 K, 1000 kPa | 676.5
303.15 K, 5000 kPa | 680.2
303.15 K, 10000 kPa | 684.6
303.15 K, 15000 kPa | 688.9
303.15 K, 20000 kPa | 693
303.15 K, 25000 kPa | 696.8
303.15 K, 30000 kPa | 700.5
303.15 K, 35000 kPa | 704
303.15 K, 40000 kPa | 707.4
303.15 K, 45000 kPa | 710.5
303.15 K, 50000 kPa | 713.5
303.15 K, 55000 kPa | 716.2
303.15 K, 60000 kPa | 718.8
308.15 K, 100 kPa | 671.4
308.15 K, 101 kPa | 671.31
308.15 K, 1000 kPa | 672.2
308.15 K, 5000 kPa | 676
308.15 K, 10000 kPa | 680.6
308.15 K, 15000 kPa | 685
308.15 K, 20000 kPa | 689.2
308.15 K, 25000 kPa | 693.2
308.15 K, 30000 kPa | 697
308.15 K, 35000 kPa | 700.6
308.15 K, 40000 kPa | 704
308.15 K, 45000 kPa | 707.2
308.15 K, 50000 kPa | 710.3
308.15 K, 55000 kPa | 713.1
308.15 K, 60000 kPa | 715.7
313.15 K, 100 kPa | 667.1
313.15 K, 101 kPa | 667
313.15 K, 1000 kPa | 668
313.15 K, 5000 kPa | 672
313.15 K, 10000 kPa | 676.7
313.15 K, 15000 kPa | 681.2
313.15 K, 20000 kPa | 685.5
313.15 K, 25000 kPa | 689.6
313.15 K, 30000 kPa | 693.5
313.15 K, 35000 kPa | 697.2
313.15 K, 40000 kPa | 700.7
313.15 K, 45000 kPa | 704
313.15 K, 50000 kPa | 707.1
313.15 K, 55000 kPa | 709.9
313.15 K, 60000 kPa | 712.6
318.15 K, 100 kPa | 662.7
318.15 K, 1000 kPa | 663.6
318.15 K, 5000 kPa | 667.7
318.15 K, 10000 kPa | 672.6
318.15 K, 15000 kPa | 677.3
318.15 K, 20000 kPa | 681.8
318.15 K, 25000 kPa | 686
318.15 K, 30000 kPa | 690
318.15 K, 35000 kPa | 693.8
318.15 K, 40000 kPa | 697.4
318.15 K, 45000 kPa | 700.7
318.15 K, 50000 kPa | 703.9
318.15 K, 55000 kPa | 706.8
318.15 K, 60000 kPa | 709.5
323.15 K, 100 kPa | 658.3
323.15 K, 1000 kPa | 659.3
323.15 K, 5000 kPa | 663.5
323.15 K, 10000 kPa | 668.6
323.15 K, 15000 kPa | 673.4
323.15 K, 20000 kPa | 678
323.15 K, 25000 kPa | 682.4
323.15 K, 30000 kPa | 686.5
323.15 K, 35000 kPa | 690.4
323.15 K, 40000 kPa | 694.1
323.15 K, 45000 kPa | 697.5
323.15 K, 50000 kPa | 700.7
323.15 K, 55000 kPa | 703.7
323.15 K, 60000 kPa | 706.4
328.15 K, 100 kPa | 653.9
328.15 K, 1000 kPa | 654.9
328.15 K, 5000 kPa | 659.3
328.15 K, 10000 kPa | 664.5
328.15 K, 15000 kPa | 669.5
328.15 K, 20000 kPa | 674.3
328.15 K, 25000 kPa | 678.8
328.15 K, 30000 kPa | 683
328.15 K, 35000 kPa | 687
328.15 K, 40000 kPa | 690.8
328.15 K, 45000 kPa | 694.3
328.15 K, 50000 kPa | 697.6
328.15 K, 55000 kPa | 700.6
328.15 K, 60000 kPa | 703.3
333.15 K, 100 kPa | 649.5
333.15 K, 1000 kPa | 650.6
333.15 K, 5000 kPa | 655.1
333.15 K, 10000 kPa | 660.5
333.15 K, 15000 kPa | 665.7
333.15 K, 20000 kPa | 670.6
333.15 K, 25000 kPa | 675.2
333.15 K, 30000 kPa | 679.6
333.15 K, 35000 kPa | 683.7
333.15 K, 40000 kPa | 687.5
333.15 K, 45000 kPa | 691.1
333.15 K, 50000 kPa | 694.4
333.15 K, 55000 kPa | 697.4
333.15 K, 60000 kPa | 700.2
343.15 K, 100 kPa | 640.5
343.15 K, 1000 kPa | 641.6
343.15 K, 5000 kPa | 646.5
343.15 K, 10000 kPa | 652.3
343.15 K, 15000 kPa | 657.8
343.15 K, 20000 kPa | 663.1
343.15 K, 25000 kPa | 668
343.15 K, 30000 kPa | 672.6
343.15 K, 35000 kPa | 676.9
343.15 K, 40000 kPa | 681
343.15 K, 45000 kPa | 684.7
343.15 K, 50000 kPa | 688.1
343.15 K, 55000 kPa | 691.3
343.15 K, 60000 kPa | 694.1
353.15 K, 100 kPa | 631.3
353.15 K, 1000 kPa | 632.5
353.15 K, 5000 kPa | 637.8
353.15 K, 10000 kPa | 644
353.15 K, 15000 kPa | 649.9
353.15 K, 20000 kPa | 655.5
353.15 K, 25000 kPa | 660.7
353.15 K, 30000 kPa | 665.6
353.15 K, 35000 kPa | 670.2
353.15 K, 40000 kPa | 674.4
353.15 K, 45000 kPa | 678.3
353.15 K, 50000 kPa | 681.9
353.15 K, 55000 kPa | 685.1
353.15 K, 60000 kPa | 688
363.15 K, 100 kPa | 621.9
363.15 K, 1000 kPa | 623.2
363.15 K, 5000 kPa | 628.9
363.15 K, 10000 kPa | 635.6
363.15 K, 15000 kPa | 641.9
363.15 K, 20000 kPa | 647.9
363.15 K, 25000 kPa | 653.4
363.15 K, 30000 kPa | 658.6
363.15 K, 35000 kPa | 663.5
363.15 K, 40000 kPa | 667.9
363.15 K, 45000 kPa | 672
363.15 K, 50000 kPa | 675.7
363.15 K, 55000 kPa | 679
363.15 K, 60000 kPa | 681.9
373.15 K, 1000 kPa | 614.2
373.15 K, 5000 kPa | 620.2
373.15 K, 10000 kPa | 627.4
373.15 K, 15000 kPa | 634.1
373.15 K, 20000 kPa | 640.4
373.15 K, 25000 kPa | 646.3
373.15 K, 30000 kPa | 651.8
373.15 K, 35000 kPa | 656.9
373.15 K, 40000 kPa | 661.5
373.15 K, 45000 kPa | 665.8
373.15 K, 50000 kPa | 669.6
373.15 K, 55000 kPa | 673.1
373.15 K, 60000 kPa | 676.1
393.15 K, 1000 kPa | 594.6
393.15 K, 5000 kPa | 601.7
393.15 K, 10000 kPa | 610
393.15 K, 15000 kPa | 617.8
393.15 K, 20000 kPa | 625
393.15 K, 25000 kPa | 631.7
393.15 K, 30000 kPa | 637.9
393.15 K, 35000 kPa | 643.6
393.15 K, 40000 kPa | 648.7
393.15 K, 45000 kPa | 653.3
393.15 K, 50000 kPa | 657.4
393.15 K, 55000 kPa | 660.9
393.15 K, 60000 kPa | 663.9
413.15 K, 1000 kPa | 574.1
413.15 K, 5000 kPa | 582.3
413.15 K, 10000 kPa | 592
413.15 K, 15000 kPa | 600.9
413.15 K, 20000 kPa | 609.2
413.15 K, 25000 kPa | 616.9
413.15 K, 30000 kPa | 623.9
413.15 K, 35000 kPa | 630.2
413.15 K, 40000 kPa | 635.9
413.15 K, 45000 kPa | 640.9
413.15 K, 50000 kPa | 645.2
413.15 K, 55000 kPa | 648.9
413.15 K, 60000 kPa | 651.9
